The supplement of paper PMC10883282
± gives the standard deviation of the averaged measurements.

Columns and labels:
Experiment in all cases: relative viability vs DMSO control (72 h) (fraction); higher = more viable cells
SW872 = system: SW872
In short: (§1)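 Serially diluted compound, 2.5 µl from source plates spanning 10 mM to 0.0002 mM, was added 24 h after sarcoma cell lines were seeded in 384-well plates at densities targeting 80–90% confluence. Plates then sat 72 h at 37 °C, 5% CO2, with 0.1% DMSO vehicle and a 5 µM positive control. Relative viability came from ATPLite as percent growth, averaged over up to triplicate wells, and was rescaled with 1 as full and 0 as none.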

SW684 = system: SW684
In short: as §1

RD-ES = system: RD-ES
In short: as §1

HS729 = system: HS729
In short: as §1

VA-ES-BJ = system: VA-ES-BJ
In short: as §1

KHOS-NP = system: KHOS-NP
In short: as §1

G401 = system: G401
In short: as §1

SK-ES-1 = system: SK-ES-1
In short: as §1

HT1080 = system: HT1080
In short: as §1

A204 = system: A204
In short: as §1

SW982 = system: SW982
In short: as §1

SK-LMS-1 = system: SK-LMS-1
In short: as §1

Compound: C[C@H](Nc1ncnc2nc[nH]c12)c1cc2cccc(Cl)c2c(=O)n1-c1ccccc1 [Duvelisib]
- relative viability (SW872; 0.00017 µM): 1.11 ± 0.044
- relative viability (SW872; 0.00051 µM): 1.1 ± 0.055
- relative viability (SW872; 0.00152 µM): 1.08 ± 0.049
- relative viability (SW872; 0.00457 µM): 1.11 ± 0.067
- relative viability (SW872; 0.01372 µM): 1.08 ± 0.072
- relative viability (SW872; 0.04115 µM): 1.03 ± 0.056
- relative viability (SW872; 0.1235 µM): 1.02 ± 0.047
- relative viability (SW872; 0.3704 µM): 0.897 ± 0.05
- relative viability (SW872; 1.111 µM): 0.813 ± 0.046
- relative viability (SW872; 3.333 µM): 0.666 ± 0.012
- relative viability (SW872; 10 µM): 0.519 ± 0.03
- relative viability (SW684; 0.00017 µM): 1.15 ± 0.036
- relative viability (SW684; 0.00051 µM): 1.11 ± 0.024
- relative viability (SW684; 0.00152 µM): 1.09 ± 0.041
- relative viability (SW684; 0.00457 µM): 0.899 ± 0.015
- relative viability (SW684; 0.01372 µM): 0.838 ± 0.034
- relative viability (SW684; 0.04115 µM): 0.722 ± 0.06
- relative viability (SW684; 0.1235 µM): 0.683 ± 0.018
- relative viability (SW684; 0.3704 µM): 0.633 ± 0.013
- relative viability (SW684; 1.111 µM): 0.543 ± 0.046
- relative viability (SW684; 3.333 µM): 0.501 ± 0.03
- relative viability (SW684; 10 µM): 0.453 ± 0.016
- relative viability (RD-ES; 0.00017 µM): 0.991 ± 0.012
- relative viability (RD-ES; 0.00051 µM): 1.01 ± 0.026
- relative viability (RD-ES; 0.00152 µM): 1.04 ± 0.032
- relative viability (RD-ES; 0.00457 µM): 1.04 ± 0.022
- relative viability (RD-ES; 0.01372 µM): 1.02 ± 0.014
- relative viability (RD-ES; 0.04115 µM): 0.996 ± 0.016
- relative viability (RD-ES; 0.1235 µM): 0.956 ± 0.029
- relative viability (RD-ES; 0.3704 µM): 0.932 ± 0.031
- relative viability (RD-ES; 1.111 µM): 0.845 ± 0.046
- relative viability (RD-ES; 3.333 µM): 0.726 ± 0.05
- relative viability (RD-ES; 10 µM): 0.551 ± 0.011
- relative viability (HS729; 0.00017 µM): 1.06 ± 0.013
- relative viability (HS729; 0.00051 µM): 1.09 ± 0.019
- relative viability (HS729; 0.00152 µM): 1.03 ± 0.049
- relative viability (HS729; 0.00457 µM): 1.03 ± 0.081
- relative viability (HS729; 0.01372 µM): 1 ± 0.034
- relative viability (HS729; 0.04115 µM): 0.987 ± 0.018
- relative viability (HS729; 0.1235 µM): 1.02 ± 0.04
- relative viability (HS729; 0.3704 µM): 0.891 ± 0.081
- relative viability (HS729; 1.111 µM): 0.863 ± 0.052
- relative viability (HS729; 3.333 µM): 0.726 ± 0.0081
- relative viability (HS729; 10 µM): 0.606 ± 0.0078
- relative viability (VA-ES-BJ; 0.00017 µM): 1.09 ± 0.05
- relative viability (VA-ES-BJ; 0.00051 µM): 1.1 ± 0.051
- relative viability (VA-ES-BJ; 0.00152 µM): 1.09 ± 0.027
- relative viability (VA-ES-BJ; 0.00457 µM): 1.1 ± 0.017
- relative viability (VA-ES-BJ; 0.01372 µM): 1.08 ± 0.04
- relative viability (VA-ES-BJ; 0.04115 µM): 1.06 ± 0.029
- relative viability (VA-ES-BJ; 0.1235 µM): 1.01 ± 0.018
- relative viability (VA-ES-BJ; 0.3704 µM): 0.941 ± 0.032
- relative viability (VA-ES-BJ; 1.111 µM): 0.834 ± 0.027
- relative viability (VA-ES-BJ; 3.333 µM): 0.688 ± 0.051
- relative viability (VA-ES-BJ; 10 µM): 0.48 ± 0.036
- relative viability (KHOS-NP; 0.00017 µM): 1.09 ± 0.033
- relative viability (KHOS-NP; 0.00051 µM): 1.09 ± 0.035
- relative viability (KHOS-NP; 0.00152 µM): 1.1 ± 0.034
- relative viability (KHOS-NP; 0.00457 µM): 1.1 ± 0.024
- relative viability (KHOS-NP; 0.01372 µM): 1.121 ± 0.0098
- relative viability (KHOS-NP; 0.04115 µM): 1.09 ± 0.026
- relative viability (KHOS-NP; 0.1235 µM): 1.07 ± 0.034
- relative viability (KHOS-NP; 0.3704 µM): 1.07 ± 0.011
- relative viability (KHOS-NP; 1.111 µM): 1.08 ± 0.019
- relative viability (KHOS-NP; 3.333 µM): 1.07 ± 0.037
- relative viability (KHOS-NP; 10 µM): 1.07 ± 0.028
- relative viability (G401; 0.00017 µM): 1.07 ± 0.013
- relative viability (G401; 0.00051 µM): 1.03 ± 0.022
- relative viability (G401; 0.00152 µM): 1.05 ± 0.019
- relative viability (G401; 0.00457 µM): 1.017 ± 0.0084
- relative viability (G401; 0.01372 µM): 0.987 ± 0.023
- relative viability (G401; 0.04115 µM): 0.983 ± 0.033
- relative viability (G401; 0.1235 µM): 0.966 ± 0.03
- relative viability (G401; 0.3704 µM): 0.9339 ± 0.0075
- relative viability (G401; 1.111 µM): 0.862 ± 0.027
- relative viability (G401; 3.333 µM): 0.763 ± 0.018
- relative viability (G401; 10 µM): 0.593 ± 0.018
- relative viability (SK-ES-1; 0.00017 µM): 1.09 ± 0.042
- relative viability (SK-ES-1; 0.00051 µM): 1.07 ± 0.056
- relative viability (SK-ES-1; 0.00152 µM): 1.06 ± 0.071
- relative viability (SK-ES-1; 0.00457 µM): 1.05 ± 0.059
- relative viability (SK-ES-1; 0.01372 µM): 1.02 ± 0.066
- relative viability (SK-ES-1; 0.04115 µM): 0.968 ± 0.069
- relative viability (SK-ES-1; 0.1235 µM): 0.99 ± 0.06
- relative viability (SK-ES-1; 0.3704 µM): 0.96 ± 0.026
- relative viability (SK-ES-1; 1.111 µM): 0.8914 ± 0.0054
- relative viability (SK-ES-1; 3.333 µM): 0.768 ± 0.035
- relative viability (SK-ES-1; 10 µM): 0.564 ± 0.019
- relative viability (HT1080; 0.00017 µM): 1.11 ± 0.025
- relative viability (HT1080; 0.00051 µM): 1.14 ± 0.043
- relative viability (HT1080; 0.00152 µM): 1.13 ± 0.019
- relative viability (HT1080; 0.00457 µM): 1.126 ± 0.0042
- relative viability (HT1080; 0.01372 µM): 1.08 ± 0.072
- relative viability (HT1080; 0.04115 µM): 1.14 ± 0.043
- relative viability (HT1080; 0.1235 µM): 1.124 ± 0.0096
- relative viability (HT1080; 0.3704 µM): 1.138 ± 0.01
- relative viability (HT1080; 1.111 µM): 1.147 ± 0.0097
- relative viability (HT1080; 3.333 µM): 1.13 ± 0.025
- relative viability (HT1080; 10 µM): 1.07 ± 0.037
- relative viability (A204; 0.00017 µM): 1.1 ± 0.021
- relative viability (A204; 0.00051 µM): 1.09 ± 0.039
- relative viability (A204; 0.00152 µM): 1.07 ± 0.021
- relative viability (A204; 0.00457 µM): 1.096 ± 0.0017
- relative viability (A204; 0.01372 µM): 1.08 ± 0.025
- relative viability (A204; 0.04115 µM): 1.06 ± 0.013
- relative viability (A204; 0.1235 µM): 1.01 ± 0.047
- relative viability (A204; 0.3704 µM): 0.908 ± 0.0087
- relative viability (A204; 1.111 µM): 0.761 ± 0.029
- relative viability (A204; 3.333 µM): 0.555 ± 0.015
- relative viability (A204; 10 µM): 0.445 ± 0.038
- relative viability (SW982; 0.00017 µM): 1.04 ± 0.012
- relative viability (SW982; 0.00051 µM): 1.08 ± 0.022
- relative viability (SW982; 0.00152 µM): 1.09 ± 0.029
- relative viability (SW982; 0.00457 µM): 1.06 ± 0.031
- relative viability (SW982; 0.01372 µM): 1.08 ± 0.041
- relative viability (SW982; 0.04115 µM): 1.04 ± 0.029
- relative viability (SW982; 0.1235 µM): 1 ± 0.041
- relative viability (SW982; 0.3704 µM): 0.952 ± 0.026
- relative viability (SW982; 1.111 µM): 0.891 ± 0.073
- relative viability (SW982; 3.333 µM): 0.771 ± 0.013
- relative viability (SW982; 10 µM): 0.623 ± 0.034
- relative viability (SK-LMS-1; 0.00017 µM): 1.05 ± 0.032
- relative viability (SK-LMS-1; 0.00051 µM): 1.04 ± 0.07
- relative viability (SK-LMS-1; 0.00152 µM): 1.08 ± 0.043
- relative viability (SK-LMS-1; 0.00457 µM): 1.05 ± 0.018
- relative viability (SK-LMS-1; 0.01372 µM): 1.03 ± 0.046
- relative viability (SK-LMS-1; 0.04115 µM): 0.9363 ± 0.0039
- relative viability (SK-LMS-1; 0.1235 µM): 0.91 ± 0.017
- relative viability (SK-LMS-1; 0.3704 µM): 0.811 ± 0.041
- relative viability (SK-LMS-1; 1.111 µM): 0.688 ± 0.014
- relative viability (SK-LMS-1; 3.333 µM): 0.572 ± 0.025
- relative viability (SK-LMS-1; 10 µM): 0.438 ± 0.018
